Each structure is given as a SMILES string.

This assay concerns the target PD-1/PD-L1 interaction (PD-1-Ig / PD-L1-His) (Homo sapiens (Human), UniProt Q9NZQ7). Put plainly: PD-1/PD-L1 Homogenous Time-Resolved Fluorescence (HTRF) binding assay. The conditions noted are these: PD-1/PD-L1 HTRF binding assay; value given as range class; read-out: Range or IC50. An excerpt: The ability of the compounds of formula (I) to bind to PD-L1 was investigated using a PD-1/PD-L1 Homogenous Time-Resolved Fluorescence (HTRF) binding assay.
Homogenous Time-Resolved Fluorescence (HTRF) Binding Assay.
The interaction of PD-1 and PD-L1 can be assessed using soluble, purified preparations of the extracellular domains of the two proteins. The PD-1 and PD-L1 protein extracellular domains were expressed as fusion proteins with detection tags, for PD-1, the tag was the Fc portion of Immunoglobulin (PD-1-Ig) and for PD-L1 it was the 6 histidine motif (PD-L1-His). All binding studies were performed in an HTRF assay buffer consisting of dPBS supplemented with 0.1% […] bovine serum albumin and 0.05% (v/v) Tween-20. For the h/PD-L1-His binding assay, inhibitors were pre-incubated with PD-L1-His (10 nM final) for 15 m in 4 μl of assay buffer, followed by addition of PD-1-Ig (20 nM final) in 1 μl of assay buffer and further incubation for 15 m. HTRF detection was achieved using europium crypate-labeled anti-Ig (1 nM final) and allophycocyanin (APC) labeled anti-His (20 nM final). Antibodies were diluted in HTRF detection buffer and 5 μl was dispensed on top of the binding reaction. The reaction mixture was allowed to equilibrate for 30 minutes and the resulting signal (665 nm/620 nm ratio) was obtained using an EnVision fluorometer. Additional binding assays were established between the human proteins PD-1-Ig/PD-L2-His (20 & 5 nM, respectively) and CD80-His/PD-L1-Ig (100 & 10 nM, respectively).
Recombinant Proteins. Human PD-1 (25-167) with a C-terminal human Fc domain of immunoglobulin G (Ig) epitope tag [hPD-1 (25-167)-3S-IG] and human PD-L1 (18-239) with a C-terminal His epitope tag [hPD-L1(18-239)-TVMV-His] were expressed in HEK293T cells and purified sequentially by ProteinA affinity chromatography and size exclusion chromatography. Human PD-L2-His and CD80-His was obtained through commercial sources.
Ranges are as follows: A=0.001 to 0.010 micromolar; B=0.011 to 0.150 micromolar; C=0.151 to 10 micromolar.

PD-1/PD-L1 interaction (PD-1-Ig / PD-L1-His), sequence (Q9NZQ7 other isoform, or with tags, fused parts or gaps): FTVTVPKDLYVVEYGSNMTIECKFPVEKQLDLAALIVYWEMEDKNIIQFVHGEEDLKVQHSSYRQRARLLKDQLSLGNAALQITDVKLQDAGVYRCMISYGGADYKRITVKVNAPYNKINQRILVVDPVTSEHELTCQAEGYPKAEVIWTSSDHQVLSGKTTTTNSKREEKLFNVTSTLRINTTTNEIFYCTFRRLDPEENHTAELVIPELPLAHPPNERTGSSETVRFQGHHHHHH

As a reminder, the IC50 is the concentration that inhibits the measured activity by half. Turning to `Cc1c(COc2cc(OCc3cncc(C#N)c3)c(CN[C@@H](CO)C(=O)O)cc2Cl)cccc1-c1cccn(CCCN2CC[C@@H](O)C2)c1=O` [Example 1040, (S)-2-((5-chloro-2-((5-cyanopyridin-3-yl)methoxy)-4-((3-(1-(3-((R)-3-hydroxypyrrolidin-1-yl)propyl)-2-oxo-1,2-dihydropyridin-3-yl)-2-methylbenzyl)oxy)benzyl)amino)-3-hydroxypropanoic acid], the IC50 was in the range of 151 to 10000 nM.

In the case of `Cc1c(COc2cc(OCc3cncc(C#N)c3)c(CN3CCCC[C@H]3C(=O)O)cc2Cl)cccc1-c1ccc2ocnc2c1` [Example 1041, (S)-1-(4-((3-(benzo[d]oxazol-5-yl)-2-methylbenzyl)oxy)-5-chloro-2-((5-cyanopyridin-3-yl)methoxy)benzyl)piperidine-2-carboxylic acid], the IC50 was in the range of 1 to 10 nM.

Regarding `Cc1c(COc2cc(OCc3cncc(C#N)c3)c(CNC(C)(CO)CO)cc2Cl)cccc1-c1ccnc(OCCCN2CCCCC2)c1Cl` [Example 2001, 5-((4-chloro-5-((3-(3-chloro-2-(3-(piperidin-1-yl)propoxy)pyridin-4-yl)-2-methylbenzyl)oxy)-2-(((1,3-dihydroxy-2-methylpropan-2-yl)amino)methyl)phenoxy)methyl)nicotinonitrile], the IC50 is 1 to 10 nM.

With `Cc1c(COc2cc(OCc3cncc(C#N)c3)c(CNC(C)(CO)CO)cc2Cl)cccc1-c1nccc(OCCCN2CC[C@@H](O)C2)c1Cl` [Example 2002, (R)-5-((4-chloro-5-((3-(3-chloro-4-(3-(3-hydroxypyrrolidin-1-yl)propoxy)pyridin-2-yl)-2-methylbenzyl)oxy)-2-(((1,3-dihydroxy-2-methylpropan-2-yl)amino)methyl)phenoxy)methyl)nicotinonitrile], the IC50 lay in the range of 1 to 10 nM.

With `Cc1nn(CCCCN2CC[C@H](O)C2)c(C)c1-c1cccc(COc2cc(OCc3cncc(C#N)c3)c(CN[C@](C)(CO)C(=O)O)cc2Cl)c1C` [Example 2003, (R)-2-((5-chloro-2-((5-cyanopyridin-3-yl)methoxy)-4-((3-(1-(4-((S)-3-hydroxypyrrolidin-1-yl)butyl)-3,5-dimethyl-1H-pyrazol-4-yl)-2-methylbenzyl)oxy)benzyl)amino)-3-hydroxy-2-methylpropanoic acid], the IC50 was in the range of 151 to 10000 nM.

For `Cc1c(COc2cc(OCc3cncc(C#N)c3)c(CNC(C)(CO)CO)cc2Cl)cccc1-c1nccc(OCCCO)c1Cl` [Example 2004, 5-((4-chloro-5-((3-(3-chloro-4-(3-hydroxypropoxy)pyridin-2-yl)-2-methylbenzyl)oxy)-2-(((1,3-dihydroxy-2-methylpropan-2-yl)amino)methyl)phenoxy)methyl)nicotinonitrile], the IC50 fell in the range of 1 to 10 nM.

As for `Cc1c(COc2cc(OCc3cncc(C#N)c3)c(CN3CCCC[C@H]3C(=O)O)cc2Cl)cncc1-c1cccc(OCCCN2CC[C@@H](O)C2)c1C` [Example 2005, (S)-1-(5-chloro-2-((5-cyanopyridin-3-yl)methoxy)-4-((5-(3-(3-((R)-3-hydroxypyrrolidin-1-yl)propoxy)-2-methylphenyl)-4-methylpyridin-3-yl)methoxy)benzyl)piperidine-2-carboxylic acid], the IC50 was 1 to 10 nM.

Take `Cc1nn(-c2cccc(COc3cc(OCc4cncc(C#N)c4)c(CNCCN4CC[C@@H](O)C4)cc3Cl)c2C)c(C)c1CNCCN1CC[C@@H](O)C1` [Example 2006, 5-((4-chloro-2-(((2-((R)-3-hydroxypyrrolidin-1-yl)ethyl)amino)methyl)-5-((3-(4-(((2-((R)-3-hydroxypyrrolidin-1-yl)ethyl)amino)methyl)-3,5-dimethyl-1H-pyrazol-1-yl)-2-methylbenzyl)oxy)phenoxy)methyl)nicotinonitrile]: the IC50 lay in the range of 151 to 10000 nM.

For `Cc1nn(-c2cccc(COc3cc(OCc4cncc(C#N)c4)c(CN4CC[C@@H](O)C4)cc3Cl)c2C)c(C)c1CN1CC[C@@H](O)C1` [Example 2007, 5-((4-chloro-2-(((R)-3-hydroxypyrrolidin-1-yl)methyl)-5-((3-(4-(((R)-3-hydroxypyrrolidin-1-yl)methyl)-3,5-dimethyl-1H-pyrazol-1-yl)-2-methylbenzyl)oxy)phenoxy)methyl)nicotinonitrile], the concentration for half-maximal inhibition (IC50) is 151 to 10000 nM.

Regarding `Cc1c(COc2cc(OCc3cncc(C#N)c3)c(CNC(C)(CO)CO)cc2Cl)cncc1-c1cccc(OCCCN2CC[C@@H](O)C2)c1C` [Example 2008, (R)-5-((4-chloro-2-(((1,3-dihydroxy-2-methylpropan-2-yl)amino)methyl)-5-((5-(3-(3-(3-hydroxypyrrolidin-1-yl)propoxy)-2-methylphenyl)-4-methylpyridin-3-yl)methoxy)phenoxy)methyl)nicotinonitrile], the half-maximal inhibitory concentration (IC50) lay within 1 to 10 nM.

Regarding `Cc1nn(-c2cccc(COc3cc(OCc4cncc(C#N)c4)c(CN[C@](C)(CO)C(=O)O)cc3Cl)c2C)c(C)c1CN1CC[C@@H](O)C1` [Example 2009, (R)-2-((5-chloro-2-((5-cyanopyridin-3-yl)methoxy)-4-((3-(4-(((R)-3-hydroxypyrrolidin-1-yl)methyl)-3,5-dimethyl-1H-pyrazol-1-yl)-2-methylbenzyl)oxy)benzyl)amino)-3-hydroxy-2-methylpropanoic acid], the IC50 is 151 to 10000 nM.

In the case of `Cc1c(OCCCN2CC[C@@H](O)C2)cccc1-c1ccnc(COc2cc(OCc3cncc(C#N)c3)c(CN3CCCC[C@H]3C(=O)O)cc2Cl)c1C` [Example 2011, (S)-1-(5-chloro-2-((5-cyanopyridin-3-yl)methoxy)-4-((4-(3-(3-((R)-3-hydroxypyrrolidin-1-yl)propoxy)-2-methylphenyl)-3-methylpyridin-2-yl)methoxy)benzyl)piperidine-2-carboxylic acid], the IC50 lay within 11 to 150 nM.

With `Cc1c(OCCCN2CC[C@@H](O)C2)cccc1-c1ccnc(COc2cc(OCc3cncc(C#N)c3)c(CN[C@@](C)(CO)C(=O)O)cc2Cl)c1C` [Example 2012, (S)-2-((5-chloro-2-((5-cyanopyridin-3-yl)methoxy)-4-((4-(3-(3-((R)-3-hydroxypyrrolidin-1-yl)propoxy)-2-methylphenyl)-3-methylpyridin-2-yl)methoxy)benzyl)amino)-3-hydroxy-2-methylpropanoic acid], the IC50 is 1 to 10 nM.

As to `CCC(CO)(CO)NCc1cc(Cl)c(OCc2nccc(-c3cccc(OCCCN4CC[C@@H](O)C4)c3C)c2C)cc1OCc1cncc(C#N)c1` [Example 2013, (R)-5-((4-chloro-2-(((1-hydroxy-2-(hydroxymethyl)butan-2-yl)amino)methyl)-5-((4-(3-(3-(3-hydroxypyrrolidin-1-yl)propoxy)-2-methylphenyl)-3-methylpyridin-2-yl)methoxy)phenoxy)methyl)nicotinonitrile], the IC50 was 1 to 10 nM.

As for `Cc1c(OCCCN2CCCCC2)cccc1-c1ccnc(COc2cc(OCc3cncc(C#N)c3)c(CN3CCCC[C@H]3C(=O)O)cc2Cl)c1C` [Example 2014, (S)-1-(5-chloro-2-((5-cyanopyridin-3-yl)methoxy)-4-((3-methyl-4-(2-methyl-3-(3-(piperidin-1-yl)propoxy)phenyl)pyridin-2-yl)methoxy)benzyl)piperidine-2-carboxylic acid], the IC50 was in the range of 11 to 150 nM.

These data come from patent publication US10590105B2, “1,3-dihydroxy-phenyl derivatives useful as immunomodulators” (BRISTOL-MYERS SQUIBB COMPANY, priority 2016, dated 2020).
